{"source": "paper PMC5901969", "about": "(Pharmaceutical research, 2017)", "key": {"[1]": {"test_system": "HIV-infected (U1) cell line", "assay": "Intracellular DRV concentration-time profile in HIV-infected monocytic", "format": "in vitro ADME", "conditions": "U1 cells"}, "monocytes": {"test_system": "monocytes", "conditions": "absence of cobicistat; cited from earlier work"}, "HIV": {"test_system": "HIV", "format": "cell-based", "conditions": "U1 cells, 24 h, p24"}, "CYP3A4 [2]": {"biological_target": "T1, CYP3A4 (Homo sapiens, UniProt P08684)", "T1 sequence (P08684 whole entry)": "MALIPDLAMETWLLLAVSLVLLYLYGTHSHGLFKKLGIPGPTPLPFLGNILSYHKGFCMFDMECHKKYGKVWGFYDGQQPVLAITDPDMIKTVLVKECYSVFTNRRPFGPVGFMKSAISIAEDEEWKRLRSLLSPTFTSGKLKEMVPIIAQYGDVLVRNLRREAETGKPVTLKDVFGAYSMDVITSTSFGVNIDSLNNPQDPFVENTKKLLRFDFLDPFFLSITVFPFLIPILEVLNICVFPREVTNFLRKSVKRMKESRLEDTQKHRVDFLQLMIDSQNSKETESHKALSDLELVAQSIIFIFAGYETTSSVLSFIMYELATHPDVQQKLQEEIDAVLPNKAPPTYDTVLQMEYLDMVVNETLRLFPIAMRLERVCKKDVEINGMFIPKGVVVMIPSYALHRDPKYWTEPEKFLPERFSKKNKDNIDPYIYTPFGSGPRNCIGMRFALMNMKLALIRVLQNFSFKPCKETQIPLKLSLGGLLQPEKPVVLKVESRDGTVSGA", "conditions": "read-out: apparent Km; ethanol as CYP3A4 substrate; cited from earlier work"}, "[3]": {"conditions": "oral 100 mg QD; cited from earlier work"}, "CYP3A4 [4]": {"biological_target": "T1, CYP3A4", "conditions": "cited from earlier work"}, "[5]": {"conditions": "10 mM and 50 mM ethanol (data not shown)"}}, "note": "Like-named read-outs stand apart in the source and are kept apart here."}
{"molecule": "CC(C)CN(C[C@@H](O)[C@H](Cc1ccccc1)NC(=O)O[C@H]1CO[C@H]2OCC[C@H]21)S(=O)(=O)c1ccc(N)cc1", "note": "[DRV, Darunavir]", "values": [{"measurement": "decrease in intracellular AUCtot of DRV", "setting": "[1]; 3 μg/ml DRV, 20 mM ethanol, compared to DRV alone", "result": 11, "unit": "%"}, {"measurement": "intracellular DRV AUCtot, effect of ethanol", "setting": "[1]; [5]", "result": "no significant change"}, {"measurement": "intracellular DRV Cmax, effect of ethanol", "setting": "[1]; [5]", "result": "no significant change"}, {"measurement": "intracellular Cmax of DRV, effect of ethanol", "setting": "[1]; 20 mM ethanol", "result": "without altering"}]}
{"molecule": "COc1cc2c(cc1Cc1cccc(Cl)c1F)c(=O)c(C(=O)O)cn2[C@H](CO)C(C)C", "note": "[EVG, Elvitegravir]", "values": [{"measurement": "intracellular AUCtot, effect of ethanol exposure", "setting": "monocytes", "result": "decreases"}, {"measurement": "intracellular Cmax, effect of ethanol exposure", "setting": "monocytes", "result": "decreases"}]}
{"molecule": "CCO", "note": "[Ethanol]", "values": [{"measurement": "increase in HIV replication compared to control", "setting": "HIV; 10 mM ethanol alone", "result": 89, "unit": "%"}, {"measurement": "increase in HIV replication compared to control", "setting": "HIV; 20 mM ethanol alone", "result": 20.6, "unit": "%"}, {"measurement": "increase in HIV replication compared to control", "setting": "HIV; 50 mM ethanol alone", "result": 41, "unit": "%"}, {"measurement": "Km", "setting": "CYP3A4 [2]", "result": 10, "unit": "mM"}]}
{"molecule": "CC(C)c1nc(CN(C)C(=O)N[C@H](C(=O)N[C@@H](Cc2ccccc2)C[C@H](O)[C@H](Cc2ccccc2)NC(=O)OCc2cncs2)C(C)C)cs1", "note": "[RTV, Ritonavir]", "values": [{"measurement": "Cmax", "setting": "[3]", "result": 1000, "unit": "ng/mL"}]}
{"molecule": "Cc1c(O)cccc1C(=O)N[C@@H](CSc1ccccc1)[C@H](O)CN1C[C@H]2CCCC[C@H]2C[C@H]1C(=O)NC(C)(C)C", "note": "[nelfinavir]", "values": [{"measurement": "decrease in IC50 in response to ethanol exposure", "setting": "CYP3A4 [4]", "result": 3, "unit": "fold"}]}
